Counter-ions that a name gives are not always drawn.
The compounds below were run against USP14 (Homo sapiens (Human), UniProt P54578) (assay: USP14 Inhibition Assay). Settings: average value from a minimum of two experimental determinations, read-out: IC50 Category.
Assay type: biochemical
Experimental: Example 17: USP14 Inhibition Assay
“I” in the Table below designates an IC50 of >5 μM, “II” in the Table below designates and IC50 between 0.5 and 5 μM, and “III” designates an IC50<0.5 μM. The IC50 values in the Table below represent the average value from a minimum of two experimental determinations.

Sequence of USP14 (P54578 whole entry, looked up): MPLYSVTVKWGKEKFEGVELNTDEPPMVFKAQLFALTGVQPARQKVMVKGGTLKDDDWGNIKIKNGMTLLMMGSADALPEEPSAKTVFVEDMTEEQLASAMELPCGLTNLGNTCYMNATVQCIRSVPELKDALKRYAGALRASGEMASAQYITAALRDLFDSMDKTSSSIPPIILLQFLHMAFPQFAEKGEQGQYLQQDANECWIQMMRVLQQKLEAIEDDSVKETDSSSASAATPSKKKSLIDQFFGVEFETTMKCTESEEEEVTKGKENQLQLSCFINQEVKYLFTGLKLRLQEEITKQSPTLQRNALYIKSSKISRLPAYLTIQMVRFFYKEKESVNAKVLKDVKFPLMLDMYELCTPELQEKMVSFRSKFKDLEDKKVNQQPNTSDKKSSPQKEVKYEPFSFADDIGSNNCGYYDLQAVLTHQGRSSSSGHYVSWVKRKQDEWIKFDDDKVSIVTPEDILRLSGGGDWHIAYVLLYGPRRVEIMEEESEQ

Row | SMILES | IC50
1 | CC(=O)NCc1ccc2c(c1)c(C(=O)CN1CCCCC1)c(C)n2-c1ccc(C#N)cc1 [Compound 183, N-((1-(4-Cyanophenyl)-2-methyl-3-(2-(piperidin-1-yl)acetyl)-1H-indol-5-yl)methyl)acetamide] | < 500 nM
2 | Cc1cnc2c(C(=O)CN3CCCCC3)c(C)n(-c3ccc(C#N)cc3)c2c1 [Compound 184, 4-(2,6-Dimethyl-3-(2-(piperidin-1-yl)acetyl)-1H-pyrrolo[3,2-b]pyridin-1-yl)benzonitrile] | < 500 nM
3 | Cc1c(C(=O)CN2CCCCC2)c2ccc(CN)cc2n1-c1ccc(Cl)cc1 [Compound 185, 1-(6-(Aminomethyl)-1-(4-chlorophenyl)-2-methyl-1H-indol-3-yl)-2-(piperidin-1-yl)ethan-1-one] | < 500 nM
4 | Cc1c(C(=O)CN2CCCCC2)c2cc(N)ccc2n1-c1ccc(C#N)cc1 [Compound 186, 4-(5-Amino-2-methyl-3-(2-(piperidin-1-yl)acetyl)-1H-indol-1-yl)benzonitrile] | < 500 nM
5 | Cc1c(C(=O)CN2CCCCC2)c2cc(NC(=O)C(C)(C)C)ccc2n1-c1ccc(C#N)cc1 [Compound 187, N-(1-(4-Cyanophenyl)-2-methyl-3-(2-(piperidin-1-yl)acetyl)-1H-indol-5-yl)pivalamide] | < 500 nM
6 | Cc1c(C(=O)CN2CCCCC2)c2ccc(CN(C)C)cc2n1-c1ccc(Cl)cc1 [Compound 188, 1-(1-(4-chlorophenyl)-6-((Dimethylamino)methyl)-2-methyl-1H-indol-3-yl)-2-(piperidin-1-yl)ethan-1-one] | < 500 nM
7 | Cc1cnc2c(C(=O)CN3CCCC(F)C3)c(C)n(-c3ccc(C#N)cc3)c2c1 (stereo not shown) [Compound 189] | < 500 nM
8 | Cc1cnc2c(C(=O)CN3CCC(F)CC3)c(C)n(-c3ccc(C#N)cc3)c2c1 [Compound 190] | < 500 nM
9 | CC(=O)Nc1ccc2c(c1)c(C(=O)CN1CCCCC1)c(C)n2-c1ccc(C#N)cc1 [Compound 191, N-(1-(4-Cyanophenyl)-2-methyl-3-(2-(piperidin-1-yl)acetyl)-1H-indol-5-yl)acetamide] | < 500 nM
10 | CN(C)c1c(C(=O)CN2CCCCC2)c2ccccc2n1-c1ccc(Cl)cc1 [Compound 192] | > 5000 nM
11 | COc1cc2c(C(=O)CN3CCCCC3)c(C)n(-c3ccc(C#N)cc3)c2cc1OC(F)(F)F [Compound 193] | 500 to 5000 nM
12 | Cc1c(C(=O)CN2CCCCC2)c2ccc(CCC(N)=O)cc2n1-c1ccc(C#N)cc1 [Compound 194, 3-(1-(4-Cyanophenyl)-2-methyl-3-(2-(piperidin-1-yl)acetyl)-1H-indol-6-yl)propanamide] | < 500 nM
13 | Cc1cc2c(nc1C)c(C(=O)CN1CCCCC1)c(C)n2-c1ccc(C#N)cc1 [Compound 195] | < 500 nM
14 | CC(=O)N(C)c1ccc2c(c1)c(C(=O)CN1CCCCC1)c(C)n2-c1ccc(C#N)cc1 [Compound 196, N-(1-(4-Cyanophenyl)-2-methyl-3-(2-(piperidin-1-yl)acetyl)-1H-indol-5-yl)-N-methylacetamide] | < 500 nM
15 | CCOC(=O)Cc1ccc2c(C(=O)CN3CCCCC3)c(C)n(-c3ccc(C#N)cc3)c2c1 [Compound 197] | < 500 nM
16 | Cc1c(C(=O)CN2CCCCC2)c2ccc(CC(=O)O)cc2n1-c1ccc(C#N)cc1 [Compound 198, 2-(1-(4-Cyanophenyl)-2-methyl-3-(2-(piperidin-1-yl)acetyl)-1H-indol-6-yl)acetic Acid] | < 500 nM

Row | SMILES | IC50
17 | CNc1ccc2c(c1)c(C(=O)CN1CCCCC1)c(C)n2-c1ccc(C#N)cc1 [Compound 199, 4-(2-Methyl-5-(methylamino)-3-(2-(piperidin-1-yl)acetyl)-1H-indol-1-yl)benzonitrile] | < 500 nM
18 | CCOC(=O)CCc1cc2c(nc1C)c(C(=O)CN1CCCCC1)c(C)n2-c1ccc(C#N)cc1 [Compound 200, Ethyl 3-(1-(4-Cyanophenyl)-2,5-dimethyl-3-(2-(piperidin-1-yl)acetyl)-1H-pyrrolo[3,2-b]pyridin-6-yl)propanoate] | < 500 nM
19 | Cc1c(C(=O)CN2CCCCC2)c2ccc(CCC(=O)O)cc2n1-c1ccc(C#N)cc1 [Compound 201, 3-(1-(4-Cyanophenyl)-2-methyl-3-(2-(piperidin-1-yl)acetyl)-1H-indol-6-yl)propanoic Acid] | < 500 nM
20 | Cc1nc2c(C(=O)CN3CCCCC3)c(C)n(-c3ccc(C#N)cc3)c2cc1CCC(=O)O [Compound 202, 3-(1-(4-Cyanophenyl)-2,5-dimethyl-3-(2-(piperidin-1-yl)acetyl)-1H-pyrrolo[3,2-b]pyridin-6-yl)propanoic Acid Hydrochloride Salt] | < 500 nM
21 | Cc1c(C(=O)CN2CCCCC2)c2ccc(CC(N)=O)cc2n1-c1ccc(C#N)cc1 [Compound 203, 2-(1-(4-Cyanophenyl)-2-methyl-3-(2-(piperidin-1-yl)acetyl)-1H-indol-6-yl)acetamide] | < 500 nM
22 | CCN(CC)C(=O)CCc1cc2c(nc1C)c(C(=O)CN1CCCCC1)c(C)n2-c1ccc(C#N)cc1 [Compound 204, 3-(1-(4-Cyanophenyl)-2,5-dimethyl-3-(2-(piperidin-1-yl)acetyl)-1H-pyrrolo[3,2-b]pyridin-6-yl)-N,N-diethylpropanamide] | < 500 nM
23 | CC(=O)OCCc1ccc2c(C(=O)CN3CCCCC3)c(C)n(-c3ccc(C#N)cc3)c2c1 [Compound 205, 2-(1-(4-Cyanophenyl)-2-methyl-3-(2-(piperidin-1-yl)acetyl)-1H-indol-6-yl)ethyl Acetate] | < 500 nM
24 | C=Cc1ccc2c(C(=O)CN3CCCCC3)c(C)n(-c3ccc(C#N)cc3)c2c1 [Compound 206, 4-(2-Methyl-3-(2-(piperidin-1-yl)acetyl)-6-vinyl-1H-indol-1-yl)benzonitrile] | < 500 nM
25 | Cc1c(C(=O)CN2CCCCC2)c2ccc(CCO)cc2n1-c1ccc(C#N)cc1 [Compound 207, 4-(6-(2-Hydroxyethyl)-2-methyl-3-(2-(piperidin-1-yl)acetyl)-1H-indol-1-yl)benzonitrile] | < 500 nM
26 | Cc1c(C(=O)CN2CCCCC2)c2nc(-n3nccn3)ccc2n1-c1ccc(C#N)cc1 [Compound 208, 4-(2-Methyl-3-(2-(piperidin-1-yl)acetyl)-5-(2H-1,2,3-triazol-2-yl)-1H-pyrrolo[3,2-b]pyridin-1-yl)benzonitrile] | < 500 nM
27 | Cc1c(C(=O)CN2CCCCC2)c2nc(-n3ccnn3)ccc2n1-c1ccc(C#N)cc1 [Compound 209, 4-(2-Methyl-3-(2-(piperidin-1-yl)acetyl)-5-(1H-1,2,3-triazol-1-yl)-1H-pyrrolo[3,2-b]pyridin-1-yl)benzonitrile] | < 500 nM
28 | Cc1nc2c(C(=O)CN3CCCCC3)c(C)n(-c3ccc(C#N)cc3)c2cc1CCC(N)=O [Compound 210, 3-(1-(4-Cyanophenyl)-2,5-dimethyl-3-(2-(piperidin-1-yl)acetyl)-1H-pyrrolo[3,2-b]pyridin-6-yl)propanamide] | < 500 nM
29 | COC(CNC(=O)CCc1cnc2c(C(=O)CN3CCCCC3)c(C)n(-c3ccc(C#N)cc3)c2c1)OC [Compound 296] | < 500 nM
30 | Cc1c(C(=O)CN2CCCCC2)c2ncc(Br)cc2n1-c1ccc(C#N)cc1 [Compound 297, 4-(6-Bromo-2-methyl-3-(2-(piperidin-1-yl)acetyl)-1H-pyrrolo[3,2-b]pyridin-1-yl)benzonitrile] | < 500 nM
31 | Cc1c(C(=O)CN2CCCCC2)c2ncc(CC(=O)N3CCCC3)cc2n1-c1ccc(C#N)cc1 [Compound 298, 4-(2-Methyl-6-(2-oxo-2-(pyrrolidin-1-yl)ethyl)-3-(2-(piperidin-1-yl)acetyl)-1H-pyrrolo[3,2-b]pyridin-1-yl)benzonitrile] | < 500 nM

Source: patent US11242361B2 (Proteostasis Therapeutics, Inc., priority 2013, dated 2022)
